Calls of active or inactive are those of the source. The rule behind the calls is not given here.
How the values were obtained:
[1] = biological target: Protein cereblon/Phospholipid hydroperoxide glutathione peroxidase GPX4 (Homo sapiens) (UniProt Q96SW2+P36969); test: PROTAC activity at CRBN/GPX4 in human MGC-803 cells assessed as induction of GPX4 degradation at 10 uM incubated for 24 hrs by Western blot analysis; format: cell-based
HT-1080 [2] = test: Cytotoxicity against human HT-1080 cells assessed as cell growth inhibition incubated for 48 hrs by CCK-8 assay; format: functional, cell-based; details: HT-1080, 48 h
HT-1080 [3] = test: Induction of ferroptosis in human HT-1080 cells assessed as […] accumulation at 10 uM incubated for 12 hrs by C11-BODIPY staining based flow cytometry analysis; format: functional, cell-based
HT-1080 [4] = test: Induction of ferroptosis in human HT-1080 cells assessed as […] accumulation at 10 uM incubated for 24 hrs by C11-BODIPY staining based flow cytometry analysis; format: functional, cell-based
[5] = biological target: von Hippel-Lindau disease tumor suppressor/Phospholipid hydroperoxide glutathione peroxidase GPX4 (Homo sapiens) (UniProt P40337+P36969); test: PROTAC activity at VHL/GPX4 in human MGC-803 cells assessed as induction of GPX4 degradation at 10 uM incubated for 24 hrs by Western blot analysis; format: cell-based
Chain of von Hippel-Lindau disease tumor suppressor/Phospholipid hydroperoxide glutathione peroxidase GPX4 (Homo sapiens) (P36969 whole entry, looked up): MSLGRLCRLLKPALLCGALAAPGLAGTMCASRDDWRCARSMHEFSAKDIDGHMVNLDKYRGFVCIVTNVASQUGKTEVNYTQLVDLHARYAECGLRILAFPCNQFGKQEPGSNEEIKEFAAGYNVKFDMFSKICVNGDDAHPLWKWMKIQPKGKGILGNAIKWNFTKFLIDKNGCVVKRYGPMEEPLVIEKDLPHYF
Chain of von Hippel-Lindau disease tumor suppressor/Phospholipid hydroperoxide glutathione peroxidase GPX4 (Homo sapiens) (P40337 whole entry, looked up): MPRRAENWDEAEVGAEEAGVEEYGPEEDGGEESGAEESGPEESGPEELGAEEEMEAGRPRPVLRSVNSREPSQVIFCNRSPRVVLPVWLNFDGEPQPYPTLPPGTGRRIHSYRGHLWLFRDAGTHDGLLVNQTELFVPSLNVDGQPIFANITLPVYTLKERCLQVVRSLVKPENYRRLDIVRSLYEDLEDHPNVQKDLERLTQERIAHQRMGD

Chain of Protein cereblon/Phospholipid hydroperoxide glutathione peroxidase GPX4 (Homo sapiens) (P36969 whole entry, looked up): as the sequence (P36969 whole entry, looked up) above
Chain of Protein cereblon/Phospholipid hydroperoxide glutathione peroxidase GPX4 (Homo sapiens) (Q96SW2 whole entry, looked up): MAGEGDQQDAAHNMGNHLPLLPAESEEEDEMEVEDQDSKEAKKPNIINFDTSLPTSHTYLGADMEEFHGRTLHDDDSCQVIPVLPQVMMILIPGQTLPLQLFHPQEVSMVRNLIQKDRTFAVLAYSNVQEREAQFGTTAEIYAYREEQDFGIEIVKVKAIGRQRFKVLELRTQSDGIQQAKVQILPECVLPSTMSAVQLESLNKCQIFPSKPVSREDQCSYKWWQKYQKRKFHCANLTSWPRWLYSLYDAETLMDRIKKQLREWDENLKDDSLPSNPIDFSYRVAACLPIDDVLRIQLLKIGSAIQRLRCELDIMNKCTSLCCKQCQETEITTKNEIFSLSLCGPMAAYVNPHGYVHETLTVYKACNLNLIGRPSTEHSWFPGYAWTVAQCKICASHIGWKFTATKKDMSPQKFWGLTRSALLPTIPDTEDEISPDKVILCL

SMILES | Activity [1] [%] | Activity [5] [%] | further results
C=C(F)C(=O)N(c1ccc(NC(=O)CCOCCNC(=O)CCOCCNc2cccc3c2C(=O)N(C2CCC(=O)NC2=O)C3=O)cc1)C(C(=O)NCCc1ccccc1)c1cccs1 (centres undefined) |  | < 10 | 
Cc1ncsc1-c1ccc([C@@H](C)NC(=O)[C@@H]2C[C@@H](O)CN2C(=O)[C@@H](NC(=O)CCCCCC(=O)Nc2ccc(N(C(=O)CCl)C(C(=O)NCCc3ccccc3)c3cccs3)cc2)C(C)(C)C)cc1 (some centres undefined) |  | < 10 | 
O=C1CCC(N2C(=O)c3cccc(OCC(=O)Nc4ccc(N(C(=O)CCl)C(C(=O)NCCc5ccccc5)c5cccs5)cc4)c3C2=O)C(=O)N1 (centres undefined) | < 10 |  | IC50 (HT-1080 [2]): 11.9 µM; Activity (HT-1080 [3]): Active; Activity (HT-1080 [4]): Active
COc1ccc(N(C(=O)CCl)C(C(=O)NCCc2ccccc2)c2ccc(NC(=O)CCOCCNc3cccc4c3C(=O)N(C3CCC(=O)NC3=O)C4=O)cc2)cc1Cl (centres undefined) |  | 28.7 | 
Cc1ncsc1-c1ccc([C@H](C)NC(=O)[C@@H]2C[C@@H](O)CN2C(=O)[C@@H](NC(=O)CCCCCCC(=O)Nc2ccc(N(C(=O)CCl)C(C(=O)NCCc3ccccc3)c3cccs3)cc2)C(C)(C)C)cc1 (some centres undefined) |  | 45 | Activity (HT-1080 [3]): inactive; Activity (HT-1080 [4]): Active
O=C(CCOCCNc1cccc2c1CN(C1CCC(=O)NC1=O)C2=O)NCCCC(=O)Nc1ccc(N(C(=O)CCl)C(C(=O)NCCc2ccccc2)c2cccs2)cc1 (centres undefined) | < 10 |  | 
Cc1ncsc1-c1ccc([C@H](C)NC(=O)[C@@H]2C[C@@H](O)CN2C(=O)[C@@H](NC(=O)CCCCCCCCCC(=O)Nc2ccc(N(C(=O)CCl)C(C(=O)NCCc3ccccc3)c3cccs3)cc2)C(C)(C)C)cc1 (some centres undefined) |  | < 10 | 
Cc1ncsc1-c1ccc([C@H](C)NC(=O)[C@@H]2C[C@@H](O)CN2C(=O)[C@@H](NC(=O)CCCCC(=O)N2CCN(CC(=O)Nc3ccc(N(C(=O)CCl)C(C(=O)NCCc4ccccc4)c4cccs4)cc3)CC2)C(C)(C)C)cc1 (some centres undefined) |  | < 10 | 
O=C(Cn1cc(COc2cccc3c2C(=O)N(C2CCC(=O)NC2=O)C3=O)nn1)NCCCCC(=O)Nc1ccc(N(C(=O)CCl)C(C(=O)NCCc2ccccc2)c2cccs2)cc1 (centres undefined) |  | < 10 | 
Cc1ncsc1-c1ccc([C@H](C)NC(=O)[C@@H]2C[C@@H](O)CN2C(=O)[C@@H](NC(=O)CCCCC(=O)Nc2ccc(N(C(=O)CCl)C(C(=O)NCCc3ccccc3)c3cccs3)cc2)C(C)(C)C)cc1 (some centres undefined) |  | < 10 | 
Cc1ncsc1-c1ccc([C@H](C)NC(=O)[C@@H]2C[C@@H](O)CN2C(=O)[C@@H](NC(=O)CCCCCCCCC(=O)Nc2ccc(N(C(=O)CCl)C(C(=O)NCCc3ccccc3)c3cccs3)cc2)C(C)(C)C)cc1 (some centres undefined) |  | 28.6 | 
COc1ccc(N(C(=O)CCl)C(C(=O)NCCc2ccccc2)c2ccc(NC(=O)CCOCCOCCOCCNc3cccc4c3C(=O)N(C3CCC(=O)NC3=O)C4=O)cc2)cc1Cl (centres undefined) |  | < 10 | 
Cc1ncsc1-c1ccc([C@H](C)NC(=O)[C@@H]2C[C@@H](O)CN2C(=O)[C@@H](NC(=O)CCCCCCCC(=O)Nc2ccc(N(C(=O)CCl)C(C(=O)NCCc3ccccc3)c3cccs3)cc2)C(C)(C)C)cc1 (some centres undefined) |  | 21 | 
COc1ccc(N(C(=O)CCl)C(C(=O)NCCc2ccccc2)c2ccc(NC(=O)CCOCCOCCNc3cccc4c3C(=O)N(C3CCC(=O)NC3=O)C4=O)cc2)cc1Cl (centres undefined) |  | < 10 | 
COc1ccc(N(C(=O)CCl)C(C(=O)NCCc2ccccc2)c2ccc(NC(=O)CCOCCNC(=O)CCOCCNc3cccc4c3C(=O)N(C3CCC(=O)NC3=O)C4=O)cc2)cc1Cl (centres undefined) |  | 39.2 | IC50 (HT-1080 [2]): 13 µM
O=C(CCOCCNc1cccc2c1CN(C1CCC(=O)NC1=O)C2=O)NCCC(=O)Nc1ccc(N(C(=O)CCl)C(C(=O)NCCc2ccccc2)c2cccs2)cc1 (centres undefined) | < 10 |  | 

More lines, main results first:

Activity [1] [%] | Activity [5] [%] | SMILES | further results
18.2 |  | O=C1CCC(N2C(=O)c3cccc(NCCOCCOCCC(=O)N4CCN(CC(=O)Nc5ccc(N(C(=O)CCl)C(C(=O)NCCc6ccccc6)c6cccs6)cc5)CC4)c3C2=O)C(=O)N1 (centres undefined) | 
< 10 |  | O=C(CCOCCNc1cccc2c1C(=O)N(C1CCC(=O)NC1=O)C2=O)NC(=O)Nc1ccc(N(C(=O)CCl)C(C(=O)NCCc2ccccc2)c2cccs2)cc1 (centres undefined) | 
33 |  | O=C1CCC(N2C(=O)c3cccc(NCCOCCC(=O)N4CCN(CC(=O)Nc5ccc(N(C(=O)CCl)C(C(=O)NCCc6ccccc6)c6cccs6)cc5)CC4)c3C2=O)C(=O)N1 (centres undefined) | IC50 (HT-1080 [2]): 11.7 µM; Activity (HT-1080 [3]): Active; Activity (HT-1080 [4]): Active
19.9 |  | O=C1CCC(N2C(=O)c3cccc(NCCOCCOCCOCCOCCC(=O)N4CCN(CC(=O)Nc5ccc(N(C(=O)CCl)C(C(=O)NCCc6ccccc6)c6cccs6)cc5)CC4)c3C2=O)C(=O)N1 (centres undefined) | 
19.4 |  | O=C1CCC(N2C(=O)c3cccc(NCCOCCOCCOCCC(=O)Nc4ccc(N(C(=O)CCl)C(C(=O)NCCc5ccccc5)c5cccs5)cc4)c3C2=O)C(=O)N1 (centres undefined) | 
18 |  | O=C(CCOCCNc1cccc2c1C(=O)N(C1CCC(=O)NC1=O)C2=O)NCCCCCC(=O)Nc1ccc(N(C(=O)CCl)C(C(=O)NCCc2ccccc2)c2cccs2)cc1 (centres undefined) | IC50 (HT-1080 [2]): 31.8 µM
< 10 |  | O=C1CCC(N2C(=O)c3cccc(OCC(=O)N4CCN(CC(=O)Nc5ccc(N(C(=O)CCl)C(C(=O)NCCc6ccccc6)c6cccs6)cc5)CC4)c3C2=O)C(=O)N1 (centres undefined) | 
< 10 |  | O=C1CCC(N2C(=O)c3cccc(NCCOCCOCCOCCC(=O)N4CCN(CC(=O)Nc5ccc(N(C(=O)CCl)C(C(=O)NCCc6ccccc6)c6cccs6)cc5)CC4)c3C2=O)C(=O)N1 (centres undefined) | 
30.1 |  | O=C(CCOCCNc1cccc2c1C(=O)N(C1CCC(=O)NC1=O)C2=O)NCCOCCC(=O)Nc1ccc(N(C(=O)CCl)C(C(=O)NCCc2ccccc2)c2cccs2)cc1 (centres undefined) | IC50 (HT-1080 [2]): 29.2 µM
< 10 |  | O=C(CCOCCNc1cccc2c1C(=O)N(C1CCC(=O)NC1=O)C2=O)NCCCCC(=O)Nc1ccc(N(C(=O)CCl)C(C(=O)NCCc2ccccc2)c2cccs2)cc1 (centres undefined) | 
< 10 |  | O=C(CCOCCNc1cccc2c1C(=O)N(C1CCC(=O)NC1=O)C2=O)NCCC(=O)Nc1ccc(N(C(=O)CCl)C(C(=O)NCCc2ccccc2)c2cccs2)cc1 (centres undefined) | 
16.4 |  | O=C(CCOCCOCCNc1cccc2c1C(=O)N(C1CCC(=O)NC1=O)C2=O)NCCOCCC(=O)Nc1ccc(N(C(=O)CCl)C(C(=O)NCCc2ccccc2)c2cccs2)cc1 (centres undefined) | 
< 10 |  | O=C(CCOCCNc1cccc2c1C(=O)N(C1CCC(=O)NC1=O)C2=O)NCCOCCOCCC(=O)Nc1ccc(N(C(=O)CCl)C(C(=O)NCCc2ccccc2)c2cccs2)cc1 (centres undefined) | 
< 10 |  | O=C(CCOCCNc1cccc2c1C(=O)N(C1CCC(=O)NC1=O)C2=O)NCCCCCCC(=O)Nc1ccc(N(C(=O)CCl)C(C(=O)NCCc2ccccc2)c2cccs2)cc1 (centres undefined) | 
33.8 |  | O=C(CCOCCNc1cccc2c1C(=O)N(C1CCC(=O)NC1=O)C2=O)NCCCC(=O)Nc1ccc(N(C(=O)CCl)C(C(=O)NCCc2ccccc2)c2cccs2)cc1 (centres undefined) | IC50 (HT-1080 [2]): 37.7 µM
14.5 |  | O=C1CCC(N2C(=O)c3cccc(NCCOCCOCCOCCOCCC(=O)Nc4ccc(N(C(=O)CCl)C(C(=O)NCCc5ccccc5)c5cccs5)cc4)c3C2=O)C(=O)N1 (centres undefined) | 
